Test results: publication PMC9504695, “Insight into the Formation of Cocrystal and Salt of Tenoxicam from the Isomer and Conformation” (Pharmaceutics, 2022)
Where two headings read alike, the source gives them in different places.

Assays:
[1] = cited from earlier work
[2] = pKa of TNX and cocrystal coformers (values from SciFinder); conditions: between CCF and TNX (pKa of TNX 4.50)
[3] = Dissolution measurements (basket method, 37 °C, HPLC); format: physicochemical; conditions: pH 1.2 and 6.8, 37 °C
Protocol: Dissolution measurements were investigated by the basket method by using an RC12AD dissolution instrument (Tianjin Tianda Tianfa Technology Co., Ltd., Tianjin, China). According to a previous study, it is necessary that all of the particle sizes of TNX, cocrystals, and salt are at the same level when the same operation is performed on these samples. To do so, the powder samples of TNX, two cocrystals, and one salt were milled and sieved through 100-mesh sieves to minimize the size influence on the results. The temperature and rotation speed were set to 37 °C and 160 r·min^−1. The dissolution mediums were water (pH 7.0), phosphate buffer (pH 6.8), acetate buffer (pH 4.5), and hydrochloric buffer (pH 1.2). Accurately weighed samples (containing 60 mg of TNX) were each added to 900 mL of dissolution mediums. The sampling points were at 5, 10, 15, 20, 30, 45, 60, 90, 120, 180, 240, 360, 480, 600, and 720 min. The concentrations of TNX were quantified on an Agilent 1200 Series HPLC system (Agilent Technologies, Santa Clara, USA) with a Sil-Green C18 HPLC column (4.6 mm × 250 mm, 5μm) and a UV detector at a wavelength of 257 nm. The mobile phase was methanol–0.04% formic acid aqueous solution (61:39). The flow rate and column temperature were set to 1 mL·min^−1 and 25 °C.

[4] = clinical dosage forms; cited from earlier work
[5] = low solubility and high permeability; cited from earlier work

ΔpKa Value [2] | SMILES | pKa Value ([1]; pKa of the CCF, ref SciFinder) | further results
2.12 | O=C(O)CCC(=O)C(=O)O [α-Ketoglutaric acid (KLA), α-Ketoglutaric acid] |  | 
0.07 | O=C(O)c1ccc(O)cc1 [4-Hydroxybenzoic acid (HBA), 4-Hydroxybenzoic acid] |  | 
2.11 | O=C(O)/C=C\C(=O)O [Maleic acid (MLA), Maleic acid] | 2.39 | 
4.95 | Oc1cccc(O)c1 [Resorcinol (RSC), Resorcinol] | 9.45 | 
4.78 | Oc1cccc(O)c1O [Pyrogallol (PRG), Pyrogallol] | 9.28 | 
0.26 | O=C(O)CCC(=O)O [Succinic acid (SNA), Succinic acid] |  | 
0.76 | O=C(O)CO [Glycolic acid (GLA), Glycolic acid] | 3.74 | 
3.20 | O=C(O)c1c(O)cccc1O [2,6-Dihydroxybenzoic acid (DHB), 2,6-Dihydroxybenzoic acid] | 1.30 | 

Further lines, the compound ahead of its results:

SMILES | ΔpKa Value [2] | pKa Value ([1]; pKa of the CCF, ref SciFinder) | further results
O=C1NS(=O)(=O)c2ccccc21 [Saccharin (SCR), Saccharin] |  | 1.60 | 
O=C(O)C(=O)O [Oxalic acid (OLA), Oxalic acid] |  | 1.38 | 
O=C(O)c1cc([N+](=O)[O-])cc([N+](=O)[O-])c1 [3,5-Dinitrobenzoic acid (DNB), 3,5-Dinitrobenzoic acid] | 1.73 | 2.77 | 
Oc1ccccc1O [Pyrocatechol (PRC), Pyrocatechol] | 5.00 | 9.50 | 
CN1C(C(=O)Nc2ccccn2)=C(O)c2sccc2S1(=O)=O.Nc1ccc(C(=O)O)c(O)c1 [TNX-PAS] |  |  | solubility in dissolution measurements, comparison [3]: slightly higher than that of TNX
CN1C(C(=O)Nc2ccccn2)=C(O)c2sccc2S1(=O)=O [TNX, Tenoxicam] |  |  | pKa ([1]; TNX, source not given): 4.50; half-life period [4]: 70~90 h; BCS class [5]: class II
Nc1ccc(C(=O)O)c(O)c1 [p-Aminosalicylic acid (PAS), p-Aminosalicylic acid] | 0.92 |  | pKa Value [1]: 3.58
